Assay results as given in patent US20070231273A1, “Method for Decreasing Blood Glucose Levels” (priority 2006, published 2007).

What was measured:
[1] = test system: KATP channel; details: cited from earlier work
[2] = molecular target: T1, β-cell KATP channels (Rattus norvegicus, UniProt P70673+Q09429); test: Cell-attached single channel recording of KATP channels; type: cell-based; set-up: the effects of iptakalim on KATP channels expressed in rat pancreatic β-cells were examined; endogenous in cells; host or cells: primary pancreatic β-cells from male adult Wistar rats
Method: (§1) Pancreatic β-cell isolation. Isolation of rat islets was performed as previously described. In short, male adult rats (Wistar) were anesthetized with diethyl ether, and 10 ml of Hank's buffered saline (HBSS) containing collagenase (200 U/ml, Wako Chem., Japan) was injected into the common bile duct. The pancreas, swollen with digestion solution, was quickly excised and incubated in a plastic culture bottle for 20 min at 37° C. The suspension obtained by shaking the bottle was filtered through 0.5 mm metal mesh and washed with HBSS, which included 2% bovine serum albumin (BSA). […] After washing with HBSS, which contained 2% BSA, islets were cultured for 24 h with 5% CO2 in the tissue culture medium. Separation of islets was carried out using dispase (1000 U/ml, Godo Shusei, Japan) as previously described. Separated cells were again cultured for 1-4 days. […] Patch-clamp recordings. Cultured β-cells were kept in a 35-mm Petri dish, and the dish was placed on the stage of an inverted microscope (IMT-2, Olympus, Tokyo, Japan). Membrane potentials and membrane currents were measured using a patch-clamp amplifier (EPC-7, List Electronic, Darmstadt, Germany). The nystatin-perforation method was used to measure the membrane potential and the standard method was used to measure whole-cell currents. […] In order to measure whole-cell membrane current, voltage ramp pulses from −90 to −50 mV were repeatedly applied using a ramp pulse generator (SET-2100, Nihon Kohden, Tokyo, Japan). […] Series resistance below 12 MΩ was accepted. Single channel current recordings were carried out by the cell-attached and inside-out configurations. All electrophysiological experiments were carried out at room temperature (22±1° C.). Data of single channel currents were low-pass filtered at 1 KHz, digitized at 10 KHz and analyzed using a single channel current analysis program (Clampfit 9.2, Axon Instruments, Foster City, Calif.). The concentration-inhibition curve created by iptakalim was fitted using Origin 5.0 (Microcal, North Hampton, Mass.).
(§2) Solutions and Drugs. The standard external solution contained (in mM): 135 NaCl, 5.6 KCl, 1.2 MgCl2, 1 CaCl2, 5 glucose, 10 HEPES and pH 7.3 adjusted with KOH. For perforated patch membrane potential recording, the pipette solution contained (in mM): 100 K-gluconate, 35 KCl, 5 glucose, 0.5 EGTA, 10 HEPES, 200 μg/ml nystatin (Sigma, St. Louis, Mo., USA) and pH 7.2. For conventional whole-cell current recording, the pipette solution contained (in mM): 100 K-gluconate, 35 KCl, 1.2 MgCl2, 5 glucose, 0.5 EGTA, 10 HEPES and pH 7.2. For cell-attached and inside-out single channel recordings, the pipette solution contained (in mM): 135 KCl, 1.2 MgCl2, 5 glucose, 0.5 EGTA, 10 HEPES and pH 7.3. The ionic composition of the solution inside the membrane (bath solution) in inside-out recordings was the same as the pipette solution, but the pH of this solution was 7.2. When performing inside-out recordings, ATP was added to the bath solution at various concentrations.

[3] = molecular target: T1, β-cell KATP channels; test: Inside-out patch single channel recording of KATP channels; type: biochemical; set-up: the effects of iptakalim on KATP channels expressed in rat pancreatic β-cells were examined; endogenous in cells; host or cells: primary pancreatic β-cells from male adult Wistar rats; details: 100 μM
Method: Pancreatic β-cell isolation. Isolation of rat islets was performed as previously described. In short, male adult rats (Wistar) were anesthetized with diethyl ether, and 10 ml of Hank's buffered saline (HBSS) containing collagenase (200 U/ml, Wako Chem., Japan) was injected into the common bile duct. The pancreas, swollen with digestion solution, was quickly excised and incubated in a plastic culture bottle for 20 min at 37° C. The suspension obtained by shaking the bottle was filtered through 0.5 mm metal mesh and washed with HBSS, which included 2% bovine serum albumin (BSA). […] After washing with HBSS, which contained 2% BSA, islets were cultured for 24 h with 5% CO2 in the tissue culture medium. Separation of islets was carried out using dispase (1000 U/ml, Godo Shusei, Japan) as previously described. Separated cells were again cultured for 1-4 days. […] Patch-clamp recordings. Cultured β-cells were kept in a 35-mm Petri dish, and the dish was placed on the stage of an inverted microscope (IMT-2, Olympus, Tokyo, Japan). Membrane potentials and membrane currents were measured using a patch-clamp amplifier (EPC-7, List Electronic, Darmstadt, Germany). […] Data of single channel currents were low-pass filtered at 1 KHz, digitized at 10 KHz and analyzed using a single channel current analysis program (Clampfit 9.2, Axon Instruments, Foster City, Calif.). […]

[4] = test system: rat β-cells; test: Fura-2 Ca2+ imaging of intracellular Ca2+ concentrations; type: cell-based; details: 100 μM bath-applied; sensitive to nifedipine
Method: Fura-2 Ca^2+ imaging. Isolated islets were placed in a glass-bottom culture dish and then loaded with a HEPES buffer solution (in mM: NaCl 140, KCl 4.7, MgCl2 1.2, CaCl2 1.0, glucose 10 and HEPES 10) containing 1 μM fura-2/AM (Dojin, Kumamoto, Japan) for 20 min at room temperature. Ca^+ images were captured using an inverted microscope with 40× Plan-Neofluar objectives (Axiovert 135, Zeiss, Oberkochen, Germany), a silicon intensifier target camera and recorded on a fluorescence-imaging system (Argus 50/CA, Hamamatsu Photonics, Hamamatsu, Japan). Excitation wavelengths were 340 nm and 380 nm, selected from a Xenon light source, and emission wavelength was 510 nm. A change in free intracellular Ca^2+ concentration ([Ca^2+]i) was calculated based on the change in ratio of two fluorescence intensities, F340/F380 (24). All microfluorimetric experiments were carried out at room temperature (22±1° C.).
Iptakalim elevated intracellular Ca^2+ concentrations. Referring to FIGS. 15-18, in order to test whether iptakalim-induced membrane depolarization triggers Ca^2+ influx through voltage-sensitive Ca^2+ channels, intracellular Ca^2+ concentrations were measured using fura-2 florescence imaging.

[5] = molecular target: T1, β-cell KATP channels; test: Conventional whole-cell voltage-clamp, ramp pulse-induced KATP channel currents; type: cell-based; set-up: the effects of iptakalim on KATP channels expressed in rat pancreatic β-cells were examined; endogenous in cells; host or cells: primary pancreatic β-cells from male adult Wistar rats; details: for effect on ramp pulse-induced KATP channel whole-cell current: ramp −90 to −50 mV, glucose 5.5 mM
Method: as §1
as §2, with “The ionic composition of the solution inside the membrane (bath solution) in inside-out recordings was the same as the pipette solution, but the pH of this solution was 7.2. When performing inside-out recordings, ATP was added to the bath solution at various concentrations.” left out

[6] = test system: rat pancreatic β-cells; test: Nystatin-perforation whole-cell recording in current-clamp mode (membrane potential); type: cell-based; details: 100 μM; for effect on membrane potential: in the presence of 10 μM nifedipine
Method: as §1
Solutions and Drugs. […]

[7] = test system: rat pancreatic islets; test: Measurement of insulin release from isolated islets (RIA); type: cell-based; details: versus basal at 5.5 mM glucose
Method: Measurement of insulin release. Isolated islets were hand-picked under microscopy, and ten islets were distributed to each 35-mm Petri dish with 3 ml of HBSS containing 5.5 mM glucose, 20 mM HEPES, and 2% BSA. After pre-incubation for 60 min, islets were exposed to 100 nM BIM for 60 min, and then stimulated by high glucose (22.5 mM), tolbutamide (0.5 mM) or iptakalim (0.1 mM) for 30 min. Before and after glucose stimulation, some samples were collected for measurement of immuno-reactive insulin (IRI), and stored at −20° C. until the assay. IRI was measured by RIA using anti-human insulin antibody with rat insulin standard (Radio-immunoassay Kit, Insulin “Eiken”, Tokyo Japan).
Iptakalim increased insulin release from rat pancreatic islets. Turning finally to FIG. 19, the effects of iptakalim were examined on insulin release. […] With glucose at 5.5 mM in the external solution, basal insulin secretion was observed. Application of 22.5 mM glucose increased insulin secretion about 3-fold (p<0.01, n=6), 500 μM tolbutamide increased insulin secretion about 2.5-fold (p<0.01, n=6), and 100 μM iptakalim increased insulin secretion about 1.5-fold (p<0.05, n=8). Each group was averaged from 5-7 cells tested. Vertical bars indicate SE.

[8] = test system: smooth muscle cells isolated from pulmonary artery; details: patch-clamp whole-cell; also isolated rat aorta denuded vascular endothelium; cited from earlier work
[9] = cited from earlier work
[10] = molecular target: T2, Kir6.2/SUR1 (Homo sapiens, UniProt Q09428+Q14654); test: Transfected Kir6.2/SUR1 cell line (HEK 293), data not shown; type: cell-based
T2 construct: expressed in transfected cells; host or cells: HEK 293
Source text: It is well known that KATP channels are expressed in a variety of tissues with different SUR subunits. For instance, cardiovascular KATP channels are formed by Kir6.2-SUR2A, pancreatic β-cell KATP channels are formed by Kir6.2-SUR1, while midbrain dopamine neurons are formed by Kir6.2-SUR1 (15,25-27) or Kir6.2-SUR2B. This diversity in SUR subunit expression results in different sensibilities to metabolic stress agents and KATP channel openers.

[11] = test system: primary cultured hippocampal neurons; details: K+, but not Na+ and Ca2+; cited from earlier work
[12] = test system: sulfonylurea (SUR) receptors of KATP channels; details: rat cerebral cortex, hippocampus, and striatum; cited from earlier work
[13] = molecular target: T1, β-cell KATP channels; test: Preliminary experiments on β-cell KATP channels (data not shown); type: cell-based; set-up: endogenous in cells; host or cells: β-cells (preparation not described for these experiments)
[14] = 100 μM bath-application, Vp 0 mV

T1 sequence (P70673 whole entry): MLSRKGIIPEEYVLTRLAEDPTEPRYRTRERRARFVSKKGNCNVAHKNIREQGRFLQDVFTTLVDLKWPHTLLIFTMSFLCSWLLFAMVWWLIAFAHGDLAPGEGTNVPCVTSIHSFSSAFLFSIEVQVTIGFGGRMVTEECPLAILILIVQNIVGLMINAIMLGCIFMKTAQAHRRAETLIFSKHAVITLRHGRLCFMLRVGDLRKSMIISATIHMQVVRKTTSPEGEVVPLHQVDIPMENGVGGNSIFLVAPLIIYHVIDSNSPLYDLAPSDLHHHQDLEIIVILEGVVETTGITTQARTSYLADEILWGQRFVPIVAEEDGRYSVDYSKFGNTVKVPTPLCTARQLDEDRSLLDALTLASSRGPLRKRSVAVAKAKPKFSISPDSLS
T1 sequence (Q09429 whole entry): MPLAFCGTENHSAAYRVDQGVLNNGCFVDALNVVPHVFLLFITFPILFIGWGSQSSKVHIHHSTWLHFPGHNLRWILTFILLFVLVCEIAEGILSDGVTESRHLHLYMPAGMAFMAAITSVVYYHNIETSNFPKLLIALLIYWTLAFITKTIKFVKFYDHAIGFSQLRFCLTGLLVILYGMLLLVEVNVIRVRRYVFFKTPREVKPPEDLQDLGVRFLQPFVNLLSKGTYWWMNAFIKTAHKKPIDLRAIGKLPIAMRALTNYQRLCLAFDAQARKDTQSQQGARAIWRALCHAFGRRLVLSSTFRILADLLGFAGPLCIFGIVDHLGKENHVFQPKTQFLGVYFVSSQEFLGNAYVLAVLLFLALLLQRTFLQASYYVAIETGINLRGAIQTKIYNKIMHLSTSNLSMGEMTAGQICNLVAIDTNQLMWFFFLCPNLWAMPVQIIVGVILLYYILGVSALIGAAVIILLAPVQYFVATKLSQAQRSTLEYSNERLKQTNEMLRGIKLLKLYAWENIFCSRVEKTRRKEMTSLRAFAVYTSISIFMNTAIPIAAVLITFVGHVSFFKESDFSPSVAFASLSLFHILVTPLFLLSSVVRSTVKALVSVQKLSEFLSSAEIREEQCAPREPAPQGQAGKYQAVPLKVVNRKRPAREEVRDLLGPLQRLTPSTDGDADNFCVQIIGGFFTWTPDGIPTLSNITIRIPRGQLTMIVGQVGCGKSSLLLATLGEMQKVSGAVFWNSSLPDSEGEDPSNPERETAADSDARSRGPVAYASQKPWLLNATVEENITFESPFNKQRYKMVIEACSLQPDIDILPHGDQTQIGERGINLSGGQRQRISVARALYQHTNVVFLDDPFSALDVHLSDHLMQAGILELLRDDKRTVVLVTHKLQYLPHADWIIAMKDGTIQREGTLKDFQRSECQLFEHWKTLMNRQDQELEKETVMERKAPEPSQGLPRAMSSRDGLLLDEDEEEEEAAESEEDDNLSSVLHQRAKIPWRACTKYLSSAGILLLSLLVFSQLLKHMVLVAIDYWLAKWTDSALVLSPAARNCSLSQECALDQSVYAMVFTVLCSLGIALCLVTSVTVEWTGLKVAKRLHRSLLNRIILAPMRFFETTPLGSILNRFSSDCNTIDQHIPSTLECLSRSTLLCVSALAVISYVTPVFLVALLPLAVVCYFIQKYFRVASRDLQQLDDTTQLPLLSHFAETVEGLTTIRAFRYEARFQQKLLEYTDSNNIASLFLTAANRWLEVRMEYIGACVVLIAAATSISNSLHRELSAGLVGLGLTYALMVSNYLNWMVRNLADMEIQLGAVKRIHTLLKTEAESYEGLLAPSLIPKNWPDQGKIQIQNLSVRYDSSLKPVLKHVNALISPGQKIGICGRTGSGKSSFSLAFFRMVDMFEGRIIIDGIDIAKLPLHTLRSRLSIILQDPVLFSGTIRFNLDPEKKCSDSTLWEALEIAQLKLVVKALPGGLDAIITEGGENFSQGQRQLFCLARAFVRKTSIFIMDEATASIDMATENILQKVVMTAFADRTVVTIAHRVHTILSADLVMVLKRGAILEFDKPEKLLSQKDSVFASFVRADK
T2 sequence (Q14654 whole entry): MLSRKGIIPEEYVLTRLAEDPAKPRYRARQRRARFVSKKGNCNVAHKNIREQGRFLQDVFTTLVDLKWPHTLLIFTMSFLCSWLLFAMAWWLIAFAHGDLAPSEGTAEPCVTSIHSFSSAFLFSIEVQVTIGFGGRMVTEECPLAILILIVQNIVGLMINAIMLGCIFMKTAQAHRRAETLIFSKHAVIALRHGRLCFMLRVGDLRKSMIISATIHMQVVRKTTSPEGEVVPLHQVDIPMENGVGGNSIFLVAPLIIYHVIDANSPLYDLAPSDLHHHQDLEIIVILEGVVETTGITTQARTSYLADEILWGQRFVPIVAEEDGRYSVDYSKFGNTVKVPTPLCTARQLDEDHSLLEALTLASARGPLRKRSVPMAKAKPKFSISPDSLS
T2 sequence (Q09428 whole entry): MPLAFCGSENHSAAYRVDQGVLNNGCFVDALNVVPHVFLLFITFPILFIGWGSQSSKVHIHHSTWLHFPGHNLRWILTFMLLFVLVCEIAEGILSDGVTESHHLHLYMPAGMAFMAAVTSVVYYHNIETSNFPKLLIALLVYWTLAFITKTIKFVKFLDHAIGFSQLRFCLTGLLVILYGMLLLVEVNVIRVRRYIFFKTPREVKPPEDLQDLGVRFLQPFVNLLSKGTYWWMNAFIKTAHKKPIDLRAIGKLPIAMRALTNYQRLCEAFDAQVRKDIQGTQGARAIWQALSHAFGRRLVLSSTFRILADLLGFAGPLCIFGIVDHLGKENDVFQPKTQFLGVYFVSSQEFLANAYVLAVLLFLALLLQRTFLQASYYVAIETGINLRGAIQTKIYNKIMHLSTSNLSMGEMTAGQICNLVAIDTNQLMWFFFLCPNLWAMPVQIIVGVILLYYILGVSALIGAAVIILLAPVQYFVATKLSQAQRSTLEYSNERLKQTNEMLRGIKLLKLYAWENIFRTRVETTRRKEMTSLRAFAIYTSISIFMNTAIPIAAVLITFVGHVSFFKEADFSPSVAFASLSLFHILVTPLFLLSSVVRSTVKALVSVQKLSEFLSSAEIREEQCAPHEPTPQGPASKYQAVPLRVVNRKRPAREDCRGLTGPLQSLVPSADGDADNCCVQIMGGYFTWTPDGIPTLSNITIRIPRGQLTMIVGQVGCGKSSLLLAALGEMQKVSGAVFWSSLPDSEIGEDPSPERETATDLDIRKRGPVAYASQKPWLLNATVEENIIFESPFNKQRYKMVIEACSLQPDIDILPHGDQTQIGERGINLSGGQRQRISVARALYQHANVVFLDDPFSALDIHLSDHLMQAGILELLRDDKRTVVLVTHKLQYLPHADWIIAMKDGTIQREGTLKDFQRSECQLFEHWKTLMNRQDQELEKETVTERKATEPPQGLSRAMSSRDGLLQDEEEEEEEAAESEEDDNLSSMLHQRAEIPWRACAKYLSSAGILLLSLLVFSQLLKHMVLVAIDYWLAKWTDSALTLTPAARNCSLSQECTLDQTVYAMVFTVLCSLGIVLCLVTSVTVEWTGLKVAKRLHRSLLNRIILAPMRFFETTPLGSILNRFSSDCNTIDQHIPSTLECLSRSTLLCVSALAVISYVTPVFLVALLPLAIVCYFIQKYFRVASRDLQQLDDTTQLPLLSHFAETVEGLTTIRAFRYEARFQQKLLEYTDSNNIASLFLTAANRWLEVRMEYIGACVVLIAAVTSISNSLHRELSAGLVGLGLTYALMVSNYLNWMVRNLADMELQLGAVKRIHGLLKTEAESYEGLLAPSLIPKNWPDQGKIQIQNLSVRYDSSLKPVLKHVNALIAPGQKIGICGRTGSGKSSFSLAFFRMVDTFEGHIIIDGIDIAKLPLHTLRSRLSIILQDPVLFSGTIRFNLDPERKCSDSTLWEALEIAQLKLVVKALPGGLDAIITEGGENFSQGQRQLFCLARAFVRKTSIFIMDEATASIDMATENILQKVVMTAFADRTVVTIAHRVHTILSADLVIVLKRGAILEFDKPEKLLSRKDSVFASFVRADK

SMILES: CC(C)NC(C)(C)C(C)C.Cl [iptakalim, N-(1-methylethyl)-1,1,2-trimethyl-propylamine hydrochloride]
- displacement of specific binding of [3H]P1075 [1]: displaced by iptakalim in a concentration-dependent manner
- effect on KATP channel activity [2, 14]: reduced channel activities
- effect on KATP channel activity ([2]; 100 μM, Vp −60 mV): reduced KATP channel activity
- open-time probability of KATP channels ([2]; during application of 100 μM, before application 0.43±0.0438, Vp 0 mV): 0.121±0.026
- current amplitude of KATP channels ([2]; during application of 100 μM, before application 3.51±0.17 pA, Vp 0 mV): 3.16±0.14 pA
- mean open time of KATP channels ([2]; during application of 100 μM, before application 5.95±0.62 ms, Vp 0 mV): 8.78 ± 0.81 ms
- mean open-time probability ([3]; absence of ATP, reduced from 0.359±0.065): 0.145±0.041
- mean open-time probability ([3]; presence of 10 μM ATP, reduced from 0.222±0.042): 0.103±0.029
- effect on intracellular Ca2+ concentrations [4]: induced elevation of intracellular Ca^2+ concentrations
- effect on ramp pulse-induced KATP channel whole-cell current ([5]; 100 μM bath-application): reduced the magnitude of the KATP channel current
- Hill coefficient of block of KATP channel current ([5]; whole-cell, concentration-inhibition curve): 0.7
- IC50 ([5]; whole-cell, concentration-inhibition curve, read-out: IC50 of block of KATP channel current): 3.3 µM
- effect on membrane potential and action potential firing ([6]; 5.5 mM glucose in external solution): slowly depolarized the membrane and elicited action potential firing
- effect on membrane potential [6]: clearly depolarized the membrane
- increase of insulin secretion ([7]; 100 μM): about 1.5 fold
- effect on K+ currents [8]: significantly enhanced K^+ currents
- water solubility [9]: water-soluble
- sensitivity of Kir6.2/SUR1 channels (opening) [10]: insensitivity
- effect on voltage-activated currents [11]: selectively enhanced voltage-activated K^+

SMILES: CCCCNC(=O)NS(=O)(=O)c1ccc(C)cc1 [tolbutamide, reference compound]
- effect on KATP channel activity ([2]; 500 μM bath-application, Vp 0 mV): completely abolished KATP channel activity
- sensitivity of spontaneous single channel activities ([2]; 500 μM bath-applied, Vp −60 mV): very sensitive
- effect on ramp pulse-induced KATP channel whole-cell current ([5]; 500 μM): reversibly abolished the size of the current
- increase of insulin secretion ([7]; 500 μM): about 2.5 fold

SMILES: CC(N/C(=N\C#N)Nc1ccncc1)C(C)(C)C (stereo not shown) [pinacidil]
- displacement of [3H]iptakalim binding [12]: displaced
- effect on β-cell KATP channels [13]: showed inhibition of β-cell KATP channels

SMILES: CCC(C)(C)N=C(NC#N)Nc1cccnc1 [P1075]
- displacement of [3H]iptakalim binding [12]: displaced

SMILES: CC1=NS(=O)(=O)c2cc(Cl)ccc2N1 [diazoxide, reference compound]
- effect on KATP channel activity [2, 14]: dramatically enhanced KATP channel activity
- effect on membrane potential [6]: remarkably hyperpolarized the membrane
